Patent US10375962B2, “Heterocycle derivatives as pesticides” (BAYER CROPSCIENCE AKTIENGESELLSCHAFT, priority 2016, dated 2019)
Like-named read-outs stand apart in the source and are kept apart here.

Legend:
[1] = log P by HPLC on a reversed-phase column (C 18), EEC Directive 79/831 Annex V.A8; type: physicochemical; conditions: for chromatographic logP: reversed-phase HPLC column (C 18)
From the text: Called log P (HCOOH) in the table.
Called log P (neutral) in the table.

[2] = test system: larvae of the mustard beetle (Phaedon cochleariae); assay: Phaedon cochleariae - spray test; type: in vivo; conditions: after 7 days
Method: Solvent: 78.0 parts by weight of acetone • • 1.5 parts by weight of dimethylformamide
Emulsifier: alkylaryl polyglycol ether
(§1) To produce a suitable active compound formulation, 1 part by weight of active compound is dissolved with the stated parts by weight of solvent and made up with water containing an emulsifier concentration of 1000 ppm until the desired concentration is attained. To produce further test concentrations, the formulation is diluted with emulsifier-containing water.
Discs of Chinese cabbage leaves (Brassica pekinensis) are sprayed with an active compound formulation of the desired concentration and, after drying, populated with larvae of the mustard beetle (Phaedon cochleariae).
After 7 days, the efficacy in % is determined. 100% means that all the beetle larvae have been killed and 0% means that none of the beetle larvae have been killed.

[3] = test system: green peach aphid (Myzus persicae); assay: Myzus persicae - spray test (Chinese cabbage leaf discs); type: in vivo; conditions: after 5 days
Method: Solvent: 78 parts by weight of acetone • • 1.5 parts by weight of dimethylformamide Emulsifier: alkylaryl polyglycol ether
as §1
Discs of Chinese cabbage leaves (Brassica pekinensis) infested by all stages of the green peach aphid (Myzus persicae) are sprayed with an active compound formulation of the desired concentration.
After 5 days, the efficacy in % is determined. 100% means that all the aphids have been killed and 0% means that none of the aphids have been killed.

[4] = test system: caterpillars of the armyworm (Spodoptera frugiperda); assay: Spodoptera frugiperda - spray test; type: in vivo; conditions: maize leaf discs, after 7 days
Method: Solvent: 78.0 parts by weight of acetone • • 1.5 parts by weight of dimethylformamide Emulsifier: alkylaryl polyglycol ether […] To produce further test concentrations, the formulation is diluted with emulsifier-containing water. Leaf discs of maize (Zea mays) are sprayed with an active compound preparation of the desired concentration and, after drying, populated with caterpillars of the armyworm (Spodoptera frugiperda).

[5] = test system: L1 larvae of the Australian sheep blowfly (Lucilia cuprina); assay: Lucilia cuprina test; type: in vivo; conditions: application rate 100 ppm; after 2 days
Method: (§2) Solvent: dimethyl sulphoxide
To produce a suitable active compound formulation, 10 mg of active compound are mixed with 0.5 ml of dimethyl sulphoxide, and the concentrate is diluted with water to the desired concentration.
About 20 L1 larvae of the Australian sheep blowfly (Lucilia cuprina) are transferred into a test vessel containing minced horsemeat and the active compound formulation of the desired concentration.
After 2 days, the kill in % is determined. 100% means that all the larvae have been killed; 0% means that no larvae have been killed.

[6] = test system: unfed adult cat fleas (Ctenocephalides felis); assay: Ctenocephalides felis - oral test; type: in vivo; conditions: application rate 100 ppm in citrated cattle blood; after 2 days
Method: as §2
For the purpose of production of a suitable active compound formulation, 10 mg of active compound are mixed with 0.5 ml of dimethyl sulphoxide. Dilution with citrated cattle blood gives the desired concentration.
About 20 unfed adult cat fleas (Ctenocephalides felis) are placed into a chamber which is closed at the top and bottom with gauze. A metal cylinder whose bottom end is closed with parafilm is placed onto the chamber. The cylinder contains the blood/active compound formulation, which can be imbibed by the fleas through the parafilm membrane.
After 2 days, the kill in % is determined. 100% means that all of the fleas have been killed; 0% means that none of the fleas have been killed.

[7] = acidic range, pH 2.7, 0.1% aqueous formic acid/acetonitrile, 55° C.
[8] = neutral range, pH 7.8, 0.001 molar aqueous ammonium hydrogencarbonate/acetonitrile, 55° C.

LOGP_HCOOH (log P (HCOOH)) ([1]; pH 2.7)	LOGP_NEUTRAL (log P (neutral)) ([1]; pH 7.8)	Compound	efficacy ([4]; application rate 100 g/ha) [%]	other results
2.73	2.67	CCS(=O)(=O)c1ccc(-c2cccc3nn(C)cc23)nc1-c1nc2cc(C(F)(F)F)ncc2n1C [Example I-16]		efficacy ([2]; application rate 500 g/ha): 83%
4.27	4.18	CCS(=O)(=O)c1ccc(-n2cc3c(Cl)cc(C(F)(F)F)cn3c2=O)nc1-c1nc2cc(C(F)(F)F)ncc2n1C [Example I-12]	100	efficacy ([3]; application rate 100 g/ha): 90%; efficacy ([3]; application rate 500 g/ha): 90%; efficacy ([4]; application rate 500 g/ha): 100%; efficacy ([2]; application rate 100 g/ha): 100%; efficacy ([2]; application rate 500 g/ha): 100%
2.09	2.08	CCS(=O)(=O)c1ccc(-n2cccc3oc(=O)nc2-3)nc1-c1nc2cc(C(F)(F)F)ncc2n1C [Example I-51]		
3.18	3.08	CCS(=O)(=O)c1ccc(-c2cc3cc(C#N)ccc3[nH]2)nc1-c1nc2cc(C(F)(F)F)ncc2n1C [Example I-3]	100	efficacy (kill) [5]: 100%; efficacy ([4]; application rate 500 g/ha): 83%; efficacy (kill) [6]: 95%; efficacy ([2]; application rate 100 g/ha): 100%; efficacy ([2]; application rate 500 g/ha): 100%
2.96	3.00	CCS(=O)(=O)c1ccc(-n2nnc3ccc(Cl)nc32)nc1-c1nc2cc(C(F)(F)F)ncc2n1C [Example I-37]		efficacy ([3]; application rate 100 g/ha): 90%
3.76	3.74	CCS(=O)(=O)c1ccc(-n2ccc3cccnc32)nc1-c1nc2cc(C(F)(F)F)ncc2n1C [Example I-29]	100	efficacy (kill) [5]: 100%; efficacy ([4]; application rate 500 g/ha): 100%
2.26	2.30	CCS(=O)(=O)c1ccc(N2Cc3cccnc3C2=O)nc1-c1nc2cc(C(F)(F)F)ncc2n1C [Example I-46]		
		CCS(=O)(=O)c1ccc(-n2nnc3ccc(Cl)cc32)nc1-c1nc2cc(C(F)(F)F)ncc2n1C [Example I-49]	100	LOGP_HCOOH (log P (HCOOH)) [1, 7]: 3.74; LOGP_NEUTRAL (log P (neutral)) [1, 8]: 3.74; efficacy ([2]; application rate 100 g/ha): 100%
2.46	2.45	CC[S+]([O-])c1ccc(-n2cc3cccnc3n2)nc1-c1nc2cc(C(F)(F)F)ncc2n1C (stereo not shown) [Example I-13]		
		CCS(=O)(=O)c1ccc(-c2cn(C)c3ccccc23)nc1-c1nc2cc(C(F)(F)F)ncc2n1C [Example I-1, 2-[3-(Ethylsulphonyl)-6-(1-methyl-1H-indol-3-yl)pyridin-2-yl]-3-methyl-6-(trifluoromethyl)-3H-imidazo[4,5-c]pyridine]		chromatographic logP ([1]; acidic range, pH 2.7, 0.1% aqueous formic acid/acetonitrile, 55° C., read-out: LOGP_HCOOH (log P (HCOOH))): 3.55; chromatographic logP ([1]; neutral range, pH 7.8, 0.001 molar aqueous ammonium hydrogencarbonate/acetonitrile, 55° C., read-out: LOGP_NEUTRAL (log P (neutral))): 3.45
		CCS(=O)(=O)c1ccc(-n2ncc3cccc(Cl)c32)nc1-c1nc2cc(C(F)(F)F)ncc2n1C [Example I-8]		LOGP_HCOOH (log P (HCOOH)) [1, 7]: 3.44; LOGP_NEUTRAL (log P (neutral)) [1, 8]: 3.34
3.25	3.20	CCS(=O)(=O)c1ccc(-n2cnc3ccc(Cl)nc32)nc1-c1nc2cc(C(F)(F)F)ncc2n1C [Example I-33]	100	efficacy ([3]; application rate 500 g/ha): 90%; efficacy ([4]; application rate 500 g/ha): 100%; efficacy ([2]; application rate 100 g/ha): 100%; efficacy ([2]; application rate 500 g/ha): 100%
4.04	4.04	CCS(=O)(=O)c1ccc(-n2ccc3ccc(Cl)cc32)nc1-c1nc2cc(C(F)(F)F)ncc2n1C [Example I-23]		efficacy ([3]; application rate 500 g/ha): 90%
3.90	3.83	CCS(=O)(=O)c1ccc(-c2cc3ccccc3n2C)nc1-c1nc2cc(C(F)(F)F)ncc2n1C [Example I-4]		efficacy (kill) [5]: 90%
2.97		CCS(=O)(=O)c1ccc(-n2c(=O)[nH]c3ccc(Cl)cc32)nc1-c1nc2cc(C(F)(F)F)ncc2n1C [Example I-48]		
